The subject of series [1] is CAMK1D. Put plainly: CAMK1D protein knockdown by western blot. It is filed as cell-based, human. Particulars: KMM-1 cells, 48h after transfection. Here is the method: (§1) Gene knockdown in tumor cells was induced using reverse siRNA transfection with Lipofectamine RNAiMAX (Thermo Scientific). Briefly, 200 μL of 250 nM siRNA solution was added to each well of a 6-well plate. 4 μl of RNAiMAX transfection reagent was diluted in 196 μL of RPMI (Sigma-Aldrich) and incubated for 10 min at room temperature (RT). 400 μL of additional RPMI was added and 600 μL of RNAiMAX mix was given to the siRNA coated wells and incubated for 30 min at RT. 3.5×10^5 KMM-1 (WT or luc) cells were resuspended in 1.2 mL of antibiotic-free RPMI culture medium supplemented with 10% FCS, seeded in the siRNA-RNAiMAX containing wells and incubated for 48 h at 37° C., 5% CO2. Final siRNA concentration was 25 nM in all cases.
30 μg of protein lysates were denaturated in 4×NuPAGE LDS Sample Buffer (Thermo Scientific) containing 100% ß-mercaptoethanol (PAN) at 70° C. for 10 min. Samples were spun down and separated on NuPAGE 4-12% Bis-Tris Gels (Thermo Scientific) along with PageRuler Prestained Protein Ladder (Thermo Scientific) and run at 115-150 V for 90 min.
Proteins were transferred from the gel to a PVDF membrane (Millipore) using a semi-dry western blot method. The PVDF blotting membrane (Merck Millipore) was activated in 100% methanol (Merck Millipore) for 1 min and afterwards placed in Transfer Buffer (Thermo Science) until use. Blots were assembled from anode to cathode into the Pierce Power Blot cassette (Thermo Scientific) and run at 24 V for 10 min. Membranes were washed in ix TBS and then placed in blocking solution (5% BSA/0.05% TBST) for 2 h. […] The blots were incubated with the ECL Detection Reagent (Reagent A and Reagent B, 1:1, GE Healthcare) for 4 min and the chemiluminescence was detected with myECL Imager (Thermo Scientific).
A general note: A western blot detects proteins with antibodies after separation by electrophoresis.

Series [2] deals with KMM-1-luc cells. Put plainly: luciferase-based cytotoxicity assay of siRNA-transfected tumour cells co-cultured with MILs. It counts as cell-based, human. Particulars: for T cell mediated cytotoxicity: co-culture with MILs, 10:1 E:T ratio; for viability impact of siRNA per se: viability setting, culture medium instead of T cells. Here is the method:
as §1
(§2) KMM-1-luc cells were reverse transfected with the desired siRNA sequences in white 96-well-plate (Perkin Elmer) and incubated for 48 h at 37° C., 5% CO2. At the same day of transfection MILs were thawn and treated with benzonase (too IU/mL) (Merck). Cell density was adjusted to 0.6×10^6 cells/mL in CLM supplemented with 3000 IU/mL rhuIL-2 (Novartis) for 48 h. IL-2 was depleted 24 h before the co-culture. Flu TC were thawn 6 h before co-culture. For the cytotoxicity setting, MILs, flu TC, the supernatant of activated MILs or rHuFasL were added to transfected tumor cells at desired E:T ratio/concentration, and incubated for 20 h at 37° C., 5% CO2. For the viability setting, only CLM was added to the tumor cells. After co-culture, supernatant was removed, remaining tumor cells were lysed using 40 μL/well of cell lysis buffer for 10 min. After tumor cell lysis, 60 μL/well of luciferase assay buffer was added and luciferase intensity was measured by using the Spark 20M plate reader (Tecan) with a counting time of 100 msec. Luciferase activities (relative luminescence units=RLUs) were either represented as raw luciferase values or as normalized data to scramble or unstimulated controls.

Series [3] has as its system CAMK1D mRNA. Put plainly: CAMK1D mRNA knockdown by qPCR. It is filed as cell-based, human. Particulars: KMM-1 cells, 48h after transfection, normalized to β-actin. As to the method:
Gene expression was measured using end-point PCR. Briefly, total RNA was isolated from cell pellets using the RNeasy Mini kit (Qiagen) according to the manufacturer's guidelines. 1 μg of RNA was reverse transcribed to complementary DNA (cDNA) using the QuantiTect reverse transcription kit (Qiagen) according to the manufacturer's protocol. Synthesized cDNA was amplified using conventional PCR. PCR samples were set up in a 25 μL volume using 2×MyTaq HS Red Mix (Bioline), 500 nM of gene-specific primer mix and 100 ng of template cDNA. The PCR program was set as the following: 95° C. for 3 min, 35 cycles of 3 repetitive steps of denaturation (95° C. for 30 s), annealing (60° C. for 30 s) and extension (72° C. for 30 s), and a final step at 72° C. for 5 min. PCR products were run on a 2% agarose gel in TAE buffer using a gel electrophoresis system (Thermo Scientific) and DNA bands were visualized using UV light of myECL Imager (Thermo Scientific). Knockdown efficiency of siRNA sequences was measured by quantitative PCR (qPCR). For qPCR, 10 ng of template cDNA, 2× QuantiFast SYBR Green PCR mix (Qiagen) and 300 nM of gene-specific primer mix was used per 20 μL reaction and each sample was prepared in triplicates. Reactions were run using the QuantStudio 3 (Applied Biosystems). Expression of several genes was normalized to the expression of β-actin gene and the analysis was performed using comparative Ct method.
as §1, with “Final siRNA concentration was 25 nM in all cases.” left out
(In qPCR the cycle at which signal appears reflects the starting amount.)

Series [4] has as its system Mel270 cells. Put plainly: blocking assay: CAMK1D inhibitor plus rHuFasL, luciferase-based cytotoxicity assay. It is filed as cell-based, human. Particulars: Mel270 uveal melanoma cells; rHuFasL 100 ng/mL, 20 h. As to the method:
as §2, with “controls. For the experiments using the anti-Calmodulin (W7) (Tocris) inhibitor, 1×10^4 KMM-1-luc (scr or CAMK1D-transfected) cells/well were seeded in white 96 well plates (Perkin Elmer) in 100 μL of RPMI 10% FCS. […]” for “controls.”

Series [5] has as its system KMM-1-luc cells. The series is described as above. It counts as cell-based, human. Particulars: KMM-1 multiple myeloma cells; rHuFasL 100 ng/mL, 20 h. As to the method:
as §2, with “controls. For the experiments using the anti-Calmodulin (W7) (Tocris) inhibitor, 1×10^4 KMM-1-luc (scr or CAMK1D-transfected) cells/well were seeded in white 96 well plates (Perkin Elmer) in 100 μL of RPMI 10% FCS. […]” for “controls.”

Series [6] has as its target T1, recombinantly expressed CAMK1D protein kinase (Homo sapiens, UniProt Q8IU85).
T1 construct: purchased ProQinase (Freiburg, Germany)
In words: radiometric protein kinase assay (33PanQinase Activity Assay) of CAMK1D kinase activity. It counts as biochemical. Particulars: 10 concentrations (1x10-05 M to 3x10-10 M), singlicate; read-out: IC50 of CAMK1D kinase inhibition. As to the method:
QPP was identified as CAMK1D inhibitor in a radiometric protein kinase assay (PanQinase® Activity Assay) used for measuring the kinase activity of a recombinantly expressed CAMK1D protein kinase. All assays were performed with a BeckmanCoulter/SAGIAN™ Core System.

The subject of series [7] is KMM-1-luc cells. In words: blocking assay: CaM inhibitor (W7) with or without rHuFasL, luciferase-based cytotoxicity assay. It is filed as cell-based, human. As to the method: as §2
For the experiments using the anti-Calmodulin (W7) (Tocris) inhibitor, 1×10^4 KMM-1-luc (scr or CAMK1D-transfected) cells/well were seeded in white 96 well plates (Perkin Elmer) in 100 μL of RPMI 10% FCS. The small molecule inhibitor was added at the indicated concentrations for 1 h at 37° C., before 100 ng/mL rHuFasL or medium control was added. DMSO treatment served as negative control. After 20 h stimulation, luciferase-based cytotoxicity assay was performed. For CAMK1D inhibition, 1×10^4 KMM-1-luc or 1×10^4 Mel270 cells/well were incubated overnight in a 96 well plate. OMX2001 was added at the indicated concentrations 1 h before rHuFasL stimulation (100 ng/mL) or medium control. DMSO treatment served as negative control. After 20h stimulation, luciferase-based cytotoxicity assay was performed.

Series [8] relates to KMM-1-luc cells. Put plainly: treatment of scr or siCAMK1D transfected cells with recombinant FasL, TRAIL or TNF, luciferase activity. Particulars: siCAMK1D transfected KMM-1, 20h treatment. It counts as cell-based, human. As to the method:
as §2

As usually defined, the IC50 is the concentration that inhibits the measured activity by half.

With “s3: siRNA targeting hCAMK1D, CCGAAAAUCUCUUGUACUA, Dharmacon D-004946-03, SEQ ID NO. 5 (listed as RNA, chemistry not given here)”, the “CAMK1D expression at protein level” value in series [1] is “significantly reduced CAMK1D expression”. For the same molecule, in series [2], the “T cell mediated cytotoxicity” value is “increased T cell mediated cytotoxicity” and the “viability impact of siRNA per se” value is recorded as “no viability impact”. Further, the “CAMK1D expression at mRNA level” value in series [3] is given as “significantly reduced CAMK1D expression”.
On to `Cc1cc(Nc2nc(-c3ccccc3)nc3ccccc23)n[nH]1` [QPP, (5-Methyl-1H-pyrazol-3-yl)-(2-phenylquinazolin-4-yl)amine], for which the “tumour cell viability (luciferase intensity) after inhibitor plus recombinant FasL” value in series [4] and in series [5] was “induced a significant tumour cell viability” in each case. Besides, in series [6], the IC50 stood at 2940 nM.
With “s1: siRNA targeting hCAMK1D, UGAAGUGUAUCCCUAAGAA, Dharmacon D-004946-01, SEQ ID NO. 3 (chemistry not given here)”, the “CAMK1D expression at protein level” value in series [1] was “significantly reduced CAMK1D expression”. Further, in series [2], the “T cell mediated cytotoxicity” value is on record as “increased T cell mediated cytotoxicity” and the “viability impact of siRNA per se” value is listed as “no viability impact”. Further, the “CAMK1D expression at mRNA level” value in series [3] is on record as “significantly reduced CAMK1D expression”.
Consider “s2: siRNA targeting hCAMK1D, CAAAUCACCUGUACUUGGU, Dharmacon D-004946-02, SEQ ID NO. 4 (listed as RNA, chemistry not given here)”, for which the “CAMK1D expression at protein level” value in series [1] is recorded as “significantly reduced CAMK1D expression”. In addition, in series [2], the “T cell mediated cytotoxicity” value is reported as “increased T cell mediated cytotoxicity” and the “viability impact of siRNA per se” value was “no viability impact”. Also, the “CAMK1D expression at mRNA level” value in series [3] is given as “significantly reduced CAMK1D expression”.
Regarding `Cl.NCCCCCCNS(=O)(=O)c1cccc2c(Cl)cccc12` [W-7 hydrochloride], the “effect on FasL induced tumour cell apoptosis” value in series [7] (5 μM, with rHuFasL) is “sharply recapitulated the effect of CAMK1D silencing”. For the same molecule, the “toxicity to KMM-1 cells (tumour cell survival by luciferase intensity)” value in series [7] (5 μM, without rHuFasL) is “not toxic”. In addition, the “further increase of FasL-mediated tumour cell killing” value in series [7] (combination of W-7 hydrochloride with CAMK1D silencing, after FasL exposure) was determined as 3 fold.

B1: TRAIL: recombinant human TNF-related apoptosis-inducing ligand (protein, UniProt P50591 1-281, looked up)
Tumor necrosis factor ligand …: MAMMEVQGGPSLGQTCVLIVIFTVLLQSLCVAVTYVYFTNELKQMQDKYSKSGIACFLKEDDSYWDPNDEESMNSPCWQVKWQLRQLVRKMILRTSEETISTVQEKQQNISPLVRERGPQRVAAHITGTRGRSNTLSSPNSKNEKALGRKINSWESSRSGHSFLSNLHLRNGELVIHEKGFYYIYSQTYFRFQEEIKENTKNDKQMVQYIYKYTSYPDPILLMKSARNSCWSKDAEYGLYSIYQGGIFELKENDRIFVSVTNEHLIDMDHEASFFGAFLVG
As for B1, in series [8], the “reduction of CAMK1D-deficient tumour cells after exposure” value is “to a much lesser degree”.

B2: FasL (protein)
chain: PSPPPEKKELRKVAHLTGKSNSRSMPLEWEDTYGIVLLSGVKYKKGGLVINETGLYFVYSKVYFRGQSCNNLPLSHKVYMRNSKYPQDLVMMEGKMMSYCTTGQMWARSSYLGAVFNLTSADHLYVNVSELSLVNFEESQTFFGLYKL
For the molecule B2, the “reduction of CAMK1D-deficient tumour cells after exposure” value in series [8] is listed as “dramatically reduced”.
